This is an account of results in paper PMC10871122, “Synthesis and In Vitro Evaluation as Potential Anticancer and Antioxidant Agents of Diphenylamine-Pyrrolidin-2-one-Hydrazone Derivatives” (International Journal of Molecular Sciences, 2023).

The test system of series [1] is tested cancer cell lines (IGR39, PPC-1, MDA-MB-231, Panc-1). The experiment in a line: MTT cell viability assay, statements on the tested cancer cell lines together. The series is classed as cell-based, human. Conditions: Homo sapiens; against IGR39 and PPC-1 cell lines. As for the experimental part:
(§1) The effect of synthesized compounds on cell viability was studied using 3-(4,5-dimethylthiazol-2-yl)-2,5-diphenyltetrazolium bromide (MTT; Sigma-Aldrich Co., St Louis, MO, USA) assay, as described elsewhere. To summarize, the cells were seeded in triplicates in 96-well Corning plates (IGR39, MDA-MB-231, Panc-1 and PPC1: 4 × 10^3 cells/well; HF: 5 × 10^3 cells/well). The cells were treated with 100 μM of tested compounds after 24 h of incubation. After 72 h, the MTT reagent was added and the formazan crystals that had formed were dissolved in DMSO (Sigma-Aldrich Co., St. Louis, MO, USA). The absorbance was determined with a multidetection microplate reader at 570 and 630 nm.
(§2) The compound serial dilutions ranging from 50 µM to 1.56 µM were introduced to the cells. The Hill equation was used to calculate the EC50 value, or the concentration of a compound that results in a 50% reduction in the metabolic activity of cells.
A general note: Tetrazolium dyes change colour on reduction, which living cells bring about.

For series [2], the system named is PPC-1 spheroids (cancer cells with fibroblasts 1:1). The experiment in a line: 3D culture: PPC-1 spheroid size and viability (WST-1). The format is cell-based, human. Conditions: 5 and 10 µM, 8 days. Here is the method: (§3) Spheroids were made of cancer cells combined with fibroblast in a 1:1 ratio to better represent the real tumor microenvironment.
(§4) The magnetic 3D Bioprinting method was utilized to form cancer cell spheroids as described elsewhere. In short, the cells at 70% confluency were incubated with Nanoshuttle (n3D Biosciences, Inc., Houston, TX, USA) for 8 h. After that, the cells were trypsinized, centrifuged and seeded into ultra-low attachment 96-well plate at a ratio of 1.5 × 10^3 cancer cells and 1.5 × 10^3 human fibroblasts/well. The plate was incubated for two days at 37 °C in a humidified atmosphere on a magnetic drive. Next, the medium with 5 and 10 µM of selected compounds was added. Photos of spheroids were taken every two days using an Olympus IX73 inverted microscope (OLYMPUS CORPORATION, Tokyo, Japan), and analysis of spheroid size was performed using ImageJ, version 1.53o (National Institutes of Health, Bethesda, MD, USA) and Microsoft Office Excel 2016 software (Microsoft Corporation, Redmond, WA, USA).
(§5) On the last day of experiment, 10 µL of WST-1 reagent (Sigma-Aldrich Co, St. Louis, MO, USA) was added to each well. Following 10-h incubation, 50 µL of liquid from each well was moved to another 96-well plate and the absorbance was measured at 460 and 530 nm.

Series [3] relates to human melanoma IGR39 cell line. The experiment in a line: MTT cell viability assay, melanoma IGR39. The format is cell-based. The following applies: for effect on cell viability compared among the cell lines: 100 µM; for effect on cell viability compared among the cell lines / EC50: 72 h, MTT; for selectivity towards cancer cells compared to fibroblasts: IGR39 (melanoma) vs fibroblasts; for EC50: Homo sapiens, IGR-39, IGR39.
Description: (§6) The human malignant melanoma cell line IGR39, human triple-negative breast cancer MDA-MB-231, and human pancreatic carcinoma cell line Panc-1 were obtained from the American Type Culture Collection (ATCC, Manassas, VA, USA). Human foreskin fibroblasts (HF) CRL-4001 were originally obtained from ATCC and kindly provided by Prof. Helder Santos (University of Helsinki, Finland). Primary prostate carcinoma PPC-1 cell line was kindly provided by Prof. Tambet Teesalu (University of Tartu, Estonia). All cell lines were cultured in Dulbecco’s Modified Eagle’s GlutaMAX medium (Gibco (Carlsbad, CA, USA)), supplemented with 10,000 U/mL penicillin, 10 mg/mL streptomycin (Gibco), and 10% fetal bovine serum (Gibco). Cell cultures were grown at 37 °C in a humidified atmosphere containing 5% CO2. They were used until the passage of 20.
as §1, §2

The test system of series [4] is prostate carcinoma PPC-1 cell line. As to the kind of experiment: MTT cell viability assay, prostate carcinoma PPC-1. The format is cell-based, human.
Description: as §6, §1, §2

Series [5] has as its system IGR39 spheroids (cancer cells with fibroblasts 1:1). As to the kind of experiment: 3D culture: IGR39 spheroid size and viability (WST-1). The format is cell-based, human. The following applies: for effect on spheroid growth / size: 5 and 10 µM, 8 days. Here is the method: as §3, §4, §5
In another series the test system is PPC-1 cell migration. As to the kind of experiment: 'Wound healing' migration assay, PPC-1. The series is classed as cell-based, human. The following applies: 72 h of incubation. Here is the method: (§7) Cancer cells were seeded at a density of 6 × 10^4 cells/well in 24-well plates. After 48 h of incubation, a 100 µL pipette tip was used to make the scratch in each well. Following a single PBS wash, the fresh medium containing 2 and 5 µM of compounds 5, 6, 13, and 14 was added to the cells. As a negative control, medium containing 0.1% DMSO was employed.

Series [6] in a line: Ferric reducing antioxidant power (FRAP) assay. The source says:
The ferric reducing antioxidant power (FRAP) assay was used to evaluate the antioxidant potential of new compounds 2–17. Antioxidant assays are based on determining reduction power reactions (e.g., reduction Fe^3+ to Fe^2+) or scavenging free radicals (DPPH, ABTS). The FRAP assay is based on the method of single electron transfer (SET), measuring the reduction in the complex of ferric ions (Fe^3+)-ligand to the blue ferrous complex (Fe^2+). This method uses 2,4,6-tripyridyl-s-triazine (TPTZ) as the linking ligand to the iron. The antioxidant activity of the synthesized compounds was compared with that of the well-known antioxidant protocatechuic acid. […] PCA is a building block for pharmaceuticals and is widely used to produce many medicinal products such as veratridine (sodium channel inactivation inhibitor), erlotinib (antineoplastic), Picatin II (treatment of hepatitis B), itopride hydrochloride (gastrointestinal motility drug). PCA can also cause the induction of apoptosis of human leukemia cells. Moreover, the antioxidant activity of PCA is based on the reduction in free radical formation via the up-regulation of genes encoding enzymes with neutralizing activities.
Antioxidant activity was determined as an increase in absorbance at 593 nm, and the results were expressed as of Fe^2+ μmol/L and in relation to antioxidants, and protocatechuic acid, as positive control. The FRAP reagent contained 2.5 mL of 10 mM TPTZ solution in 40 mM HCl as well as 2.5 mL of FeCl3 (20 mM) and 25 mL of acetate buffer (0.3 M, pH = 3.6). Then, 100 μL of analyzed compounds (20 mM) were mixed with 3 mL of the FRAP reagent. The absorbance of the reaction mixture was measured spectrophotometrically at 593 nm using a UV-1280 UV-VIS spectrophotometer (Shimadzu Corporation, Kyoto, Japan). To compose the calibration curve, five concentrations of FeSO4·7H2O (5, 10, 15, 20, 25 μM) were used, and the absorbance was measured as a sample solution.

The test system of series [7] is human pancreatic carcinoma Panc-1 cell line. As to the kind of experiment: MTT cell viability assay, Panc-1. The format is cell-based.
Description: as §6, §1, §2

Another series deals with Panc-1 cell migration. As to the kind of experiment: 'Wound healing' migration assay, Panc-1. The format is cell-based, human. Conditions: 72 h of incubation. Here is the method:
as §7

The next series has as its system IGR39 cell migration. The experiment in a line: 'Wound healing' migration assay, IGR39. The format is cell-based, human. Conditions: 48 h of incubation; control 'wound' completely closed. Here is the method: as §7
The test system of series [8] is human triple-negative breast cancer MDA-MB-231 cell line. As to the kind of experiment: MTT cell viability assay, MDA-MB-231. The series is classed as cell-based. The following applies: 72 h; for EC50: Homo sapiens, MDA-MB-231.
Description: as §6, §1, §2

The subject of another series is melanoma cell. The arrangement: method as in PMID 21700700. Conditions: cited from earlier work.

A word on the EC50: it is the concentration needed to bring the measured effect to its halfway point. As a reminder, the melting point is the temperature of the solid-liquid transition. Molecule `O=C(NN=Cc1cc(Cl)ccc1O)C1CC(=O)N(c2ccc(Nc3ccccc3)cc2)C1` (stereo not drawn) [Compound 5, N′-(5-chloro-2-hydroxybenzylidene)-5-oxo-1-(4-(phenylamino)phenyl)pyrrolidine-3-carbohydrazide] gave a melting point of 223 to 224 °C. Moreover, in series [1], the half-maximal effective concentration (EC50) was in the range of 2.5 to 20.2 µM. In addition, the “effect on spheroid growth / size” value in [2] was “did not affect spheroid growth”. The “effect on cell viability compared among the cell lines” value in series [3] was “strongest effect on melanoma cells”. Further, the “selectivity towards cancer cells compared to fibroblasts” value (from here on “selectivity towards cancer cells”) in series [4] (prostate carcinoma vs fibroblasts) was found to be 3.6. Also, in series [5], the “effect on spheroid growth / size” value is “did not affect spheroid growth”. Moreover, in series [5] (WST-1, end of experiment), the “effect on spheroid viability compared to the control” value (“effect … compared to the control” below) is reported as “statistically significant effect” and the “spheroid cell viability (reduced up to)” value was ~ 75%.

For `O=C(NN=Cc1ccc(Cl)c(Cl)c1)C1CC(=O)N(c2ccc(Nc3ccccc3)cc2)C1` (stereo not drawn) [Compound 6, N′-(3,4-dichlorobenzylidene)-5-oxo-1-(4-(phenylamino)phenyl)pyrrolidine-3-carbohydrazide], the melting point lay in the range of 220 to 221 °C. In addition, the concentration for a half-maximal effect (EC50) in [1] was 2.5 to 20.2 µM. Further, the “effect on cell migration” value with PPC-1 cell migration (higher concentration (5 µM)) was “inhibited”. For the same molecule, the “reducing power activity compared to the control antioxidant” value in series [6] (vs protocatechuic acid) is on record as “higher than those of known antioxidants used as the controls”. For the same molecule, in series [3], the “effect on cell viability compared among the cell lines” value is “strongest effect on melanoma cells” and the “selectivity towards cancer cells” value worked out at 2.8. In addition, the “effect … compared to the control” value in [5] (WST-1, end of experiment) is given as “statistically significant effect”.

For the molecule `O=C(NN=Cc1ccc([N+](=O)[O-])s1)C1CC(=O)N(c2ccc(Nc3ccccc3)cc2)C1` (stereo not drawn) [Compound 13, N′-((5-nitrothiophen-2-yl)methylene)-5-oxo-1-(4-(phenylamino)phenyl)pyrrolidine-3-carbohydrazide], the melting point fell in the range of 235 to 236 °C. In series [7] (100 µM, 72 h, MTT), the “cell viability compared to the control (inhibited up to)” value is on record as ~ 9%. The EC50 in series [7] (Homo sapiens, MTT, 72 h, Panc-1) was determined as 5.77 ± 0.8 µM. Further, the “selectivity towards cancer cells” value in [7] (Panc-1 vs fibroblasts) was found to be 1.2. Also, in the series on Panc-1 cell migration, the “'wound' area compared to the control (times larger)” value came to 7.5 times. Moreover, the EC50 in series [1] lay in the range of 2.5 to 20.2 µM. The “'wound' area compared to the control (times larger)” value in the series on PPC-1 cell migration was ~ 24 times. Moreover, the “FRAP reducing power (Fe^2+)” value in series [6] (absorbance at 593 nm) amounted to 103.95 µmol/L. Also, the “'wound' area” value with IGR39 cell migration was 15.8 ± 8.8%. Besides, in series [3], the “effect on cell viability compared among the cell lines” value was “strongest effect on melanoma cells”, the 50% effective concentration (EC50) was 2.5 ± 0.46 µM and the “selectivity towards cancer cells” value came out at 2.8. In [4] (Homo sapiens, MTT, 72 h, PPC-1), this molecule yielded an EC50 of 3.63 ± 0.45 µM. Further, the “effect … compared to the control” value in series [5] (WST-1, end of experiment) is recorded as “statistically significant effect”. Besides, the “cell viability compared to the control (inhibited up to)” value in series [8] (100 µM) was ~ 9%. This molecule also registered a 50% effective concentration (EC50) in series [8] of 5.1 ± 0.8 µM.

Take `O=C(NN=Cc1c[nH]c2ccccc12)C1CC(=O)N(c2ccc(Nc3ccccc3)cc2)C1` (stereo not drawn) [Compound 14, N′-((1H-indol-3-yl)methylene)-5-oxo-1-(4-(phenylamino)phenyl)pyrrolidine-3-carbohydrazide]: the melting point was in the range of 238 to 239 °C. The molecule further registered a concentration for a half-maximal effect (EC50) in [1] of 2.5 to 20.2 µM. For the same molecule, the “effect on spheroid growth / size” value in series [2] is “slightly reduced the growth”. In [3], the “effect on cell viability compared among the cell lines” value is listed as “strongest effect on melanoma cells” and the EC50 was determined as 10.4 ± 1.35 µM. In addition, the “effect on spheroid growth / size” value in series [5] is “became somewhat larger”. Besides, the EC50 in series [8] was 19.8 ± 1.86 µM.

With `CN(C)/N=N/c1[nH]cnc1C(N)=O` [dacarbazine], the “concentration that inhibits melanoma cell proliferation” value in the series on melanoma cell is 25 to 100 µM.
